Results published in patent US20230127442A1, “COMPOSITIONS FOR INCREASING ETHANOL PRODUCTION AND RELATED METHODS” (KEMIN INDUSTRIES, INC., priority 2021, published 2023).

Experiments:
[1] = test system: yeast; experiment: Corn mash fermentation with synthetic antioxidants, 24 hours at 33° C. then heat stress at 37° C. to 72 hours, ethanol by HPLC (Example 6); type: cell-based; details: for increase in ethanol content at 24 hour compared to control: before heat stress
Source text: (§1) Lutein (FloraGLO®): Lutein crystals were purified from marigolds and suspended in oil. Acerola extract (Fortium® A): Acerola fruit grown from Malpighia emarginata, water extract. Spearmint Extract (Neumentix®): Spearmint leaves grown from Mentha spicata L. (Kemin Industries, Inc. proprietary lines KI-MsEM0042, KI-MsEM0110), water extract. Aqueous Tea Extract (AssuriTEA® Green): Tea leaves grown from Camellia sinensis, water extract. Solvent Extracted Tea (Fortium® GT107): Tea leaves grown from Camellia sinensis and extracted with acetone and ethyl acetate, solvent extract. Rosemary Extract (Fortium® M): Rosemary leaves grown from Rosmarinus officinalis extracted with either acetone and TFE or ethanol. Mixed Tocopherols (Fortium® MT): Mixed tocopherols are extracted from vegetable oils with hexane, ethanol, and methanol. Lipid-Soluble Green Tea (GT-FORT): Tea leaves grown from Camellia sinensis and extracted with ethyl acetate, dichloromethane, and ethanol. Synthetic antioxidants: TBHQ (tert-butylhydroquinone) and BHT (butylated hydroxytoluene); tert-butlyhydroquinone was solubilized in propylene glycol and butylated hydroxytoluene was solubilized in ethanol. In alternative embodiments, the synthetic antioxidants are suspended in liquid or solubilized in liquid, including but not limited to water and organic solvents or combinations thereof.
Dry yeast was added to corn mash containing urea, protease, phytase, and glucoamylase. tert-Butylhydroquinone (0.0001, 0.001, or 0.01 mg/L) and butylated hydroxytoluene (0.0001, 0.001, or 0.01 mg/L were added to the corn mash. Corn mash containing no antioxidants was included in the experiment as a Control. The corn mash was fermented in a temperature-controlled incubator shaker for 24 hours at 33° C. Following 24 hours, the yeast in the corn mash were subjected to heat stress by increasing the temperature to 37° C. and the corn mash fermented for another 48 hours for a total fermentation time of 72 hours. Ethanol levels were measured by HPLC.

[2] = test system: yeast; experiment: Corn mash fermentation, 48 hours, heat stress at 38° C. after 24 hours, ethanol by HPLC (Example 1); type: cell-based; details: 48 hours total, heat stress 38° C. for last 24 hours
Source text: as §1
Dry yeast was added to corn mash containing urea, protease, phytase, and glucoamylase. Lutein, a fat-soluble antioxidant, was added to the mash at 200, 1,000, or 2,000 mg/L. Dried aqueous tea extract or spearmint extract containing antioxidants were added to the corn mash at 100, 1,000, or 5,000 mg/L. Corn mash containing no added antioxidants was included in the experiment as a control group (Control). The corn mash was fermented in a temperature-controlled incubator shaker for 24 hours at 33° C. Following 24 hours, the yeast in the corn mash were subjected to heat stress by increasing the temperature to 38° C. and the corn mash fermented for another 24 hours for a total fermentation time of 48 hours. Ethanol levels were measured by HPLC.

Cc1cc(C(C)(C)C)c(O)c(C(C)(C)C)c1 [butylated hydroxytoluene]
change of ethanol content of corn mash through 72 hours compared to control ([1]; 72 hours, following heat stress 37° C., 0.0001, 0.001 or 0.01 mg/L): slightly decreased

CC(C)(C)c1cc(O)ccc1O [tert-Butylhydroquinone, tert-butylhydroquinone]
increase in ethanol content at 24 hour compared to control ([1]; 0.0001 mg/L, first 24 hours at 33° C.): up to 0.4%
increase in ethanol content at 24 hour compared to control ([1]; 0.01 mg/L, first 24 hours at 33° C.): up to 1.8%
increase in ethanol content at 72 hour compared to control ([1]; 72 hours, following heat stress 37° C., highest increase among 0.0001, 0.001 or 0.01 mg/L): ≤ 2.8%
change of ethanol content of corn mash over the first 24 hours compared to control ([1]; first 24 hours at 33° C., FIG. 17, 0.0001, 0.001 or 0.01 mg/L): decreased

CC1=C[C@H](O)CC(C)(C)[C@H]1/C=C/C(C)=C/C=C/C(C)=C/C=C/C=C(C)/C=C/C=C(C)/C=C/C1=C(C)C[C@@H](O)CC1(C)C [lutein, Lutein]
increase in ethanol content of corn mash compared to Control ([2]; 200 mg/L): 4%
increase in ethanol content of corn mash compared to Control ([2]; 1,000 mg/L): 7%
increase in ethanol content of corn mash compared to Control ([2]; 2,000 mg/L): 10%
